{
  "source": "patent US6855549B1",
  "about": "“Methods and compositions for increasing the infectivity of gene transfer vectors” (The University of Iowa Research Foundation, priority 1998, dated 2005)",
  "key": {"[1]": {"test_system": "differentiated human airway epithelial cells", "assay_type": "cell-based", "conditions": "5 μM AZT at addition of FIV-βgal vector/EGTA to apical surface"}, "[2]": {"test_system": "differentiated human airway epithelia", "test": "Transepithelial resistance of KGF-treated airway epithelia with Ca2+ chelators", "assay_type": "cell-based", "method": "Differentiated epithelial cells were treated with 100 ng/ml KGF for 24 hr. Different concentrations of each calcium chelator in HEPES/HCl (pH 7.4) or in isotonic HEPES/saline (pH 7.4) buffer were mixed with vector buffer and applied to the apical surface for times as specified (Wang et al., 1998). Transepithelial resistance was measured with an Ohmmeter (EVOM; World Precision Instruments, Inc. Sarasota, Fla.) by adding cell culture media to the apical surface and the values were compared to untreated controls.\nTo understand whether the tonicity of the vector solution affects epithelial permeability and gene transfer efficiency, hypotonic (40 mmol/kg) or isotonic (220 mmol/kg) solutions of 6 mM EGTA, EDTA or BAPTA were added to the MuLV vector buffer and applied to the apical surface of differentiated airway epithelial cells pre-treated with KGF. At specific time intervals, transepithelial resistance (R1) was measured using an Ohmmeter."}, "[3]": {"test_system": "rabbit tracheal epithelium", "test": "Tracheal transepithelial voltage (Vt) in anesthetized rabbits", "assay_type": "in vivo", "conditions": "rabbit, in vivo", "method": "Rabbit studies. The transepithelial electrical potential difference across the rabbit tracheal epithelium (Vt) was measured using a modification of previously described methods (Zabner et al., 1996). The reference electrode was a subcutaneous needle connected with sterile normal saline solution to a silver/silver chloride pellet. Adult New Zealand white rabbits (n=4/group) were anesthetized with 32 mg/kg ketamine, 5.1 mg/kg xylazine and 0.8 mg/kg acepromazine intramuscularly and placed with the head in the dependent position. An exploring electrode (pediatric size 8 Teflon-coated latex double lumen Foley catheter, modified Ruseh, Inc., Duluth, Ga.) was inserted into the tracheal lumen via a tracheotomy incision. One lumen of the catheter was filled with sterile normal saline solution and was connected to a silver/silver chloride pellet. Voltage was measured with a voltmeter connected to a strip chart recorder. The catheter was then left in that position for the entire recording period. The solutions were administered through the second lumen in the following order: 1) Normal saline for 5 min; 2) Sterile water with 10 mM EGTA for 10 min; 3) Normal saline with 10 mM EGTA for 5 min; and 4) Normal saline with 10 mM EGTA plus 100 μM amiloride for 5 min. Measurements of Vt were read by two investigators who were blinded to the treatment received. There wre no discrepancies in readings of greater than 2 mV between the investigators. Disruption of epithelial junctions was assessed by detecting a fall in […] Vt after perfusion with the chelator, and by the loss of amiloride-sensitive Vt after perfusion with the chelator solution."}, "[4]": {"test_system": "human nasal epithelium", "test": "Nasal transepithelial voltage (Vt) in human volunteers", "assay_type": "in vivo", "conditions": "human, in vivo", "method": "Human studies. The Vt across the nasal epithelium was measured in 6 volunteers using previously described methods (Zabner et al., 1996). The protocol followed was identical to that described above for the rabbit studies. […] The catheter was then left in that position for the entire recording period. The solutions were administered through the second lumen in the following order: 1) Normal saline for 5 min; 2) Sterile water with 10 mM EGTA or 10 mM EDTA for 10 min; 3) Nommal saline with 10 mM EGTA or 10 mM EDTA for 5 min; and 4) Normal saline with 10 mM, EGTA or 10 mM EDTA plus […] amiloride for 5 min. Measurements of Vt were read by two investigators who were blinded and wvere checked by a third investigator if there was a discrepancy of more than 2 mV. Disruption of epithelial junctions was assessed by detecting a fall in nasal Vt after perfusion with the chelator, and by the loss of amiloride-sensitive Vt after perfusion with the. chelator solution."}, "[5]": {"test_system": "differentiated human airway epithelia", "assay_type": "cell-based"}, "[6]": {"test_system": "human airway epithelia", "test": "BrdU labeling of differentiated human airway epithelia", "assay_type": "cell-based", "conditions": "for BrdU incorporation versus control epithelia: EGF 200 ng/ml, heregulin 5 nM", "method": "BrdU immunohistochemistry. BrdU labeling and immunostaining was performed using a kit from Zymed Laboratories Inc. (South San Francisco, Calif.). In studies that investigate the effects of growth factors, the cells may be treated with 50-100 ng/ml growth factor for 36 h. A 1:100 dilution of the BrdU labeling reagent was added to the culture media and cells labeled for 4 hours followed by fixation in 10% neutralized Formalin. BrdU histochemistry was performed following the methods of the Zymed BrdU kit. Labeled nuclei stained brown under these conditions. Epithelial cell preparations were examined microscopically en face or in cross sections of paraffin embedded membranes and the percentage of brown staining nuclei determined. Hematoxylin or 4′,6-diamidino-2-phenylindole, dibydrochloride (DAPI) (Molecular Probes, Eugene, Oreg.) were used for counterstains.\nTo determine whether growth factors are mitogenic to human airway epithelia, primary cultures of cells grown at the air-liquid interface were utilized. These cultures have ion transport properties and morphology similar to the intact surface epithelium (Smith et al., 1996; Kondo et al., 1991) and after 14 days in culture the cells are well-differentiated, ciliated, and have ion transport properties similar to the intact airways (Zabner et al., 1996; Yamaya et al., 1992). […] After 24 hours of growth factor treatment, growth factor administration doubles the monolayer cell number compared to control. HGF treatment (200 ng/ml) increased cell labeling to 17-36%, while 5-10% of untreated controls were BrdU positive (n=3)."}, "[7]": {"test_system": "human airway epithelia", "test": "[3H] thymidine incorporation in primary cultures of human airway epithelia", "assay_type": "cell-based", "conditions": "200 ng/ml HGF"}},
  "data": [
    {"compound": "Cc1cn([C@H]2C[C@H](N=[N+]=[N-])[C@@H](CO)O2)c(=O)[nH]c1=O", "note": "[AZT, 3′-azido-3′ deoxythymidine]", "values": [
      {"measurement": "expression of vector encoded product (pseudotransduction control)", "setting": "[1]", "result": "showed no significant expression of vector encoded product"}
    ]},
    {"compound": "O=C(O)CN(CC(=O)O)c1ccccc1OCCOc1ccccc1N(CC(=O)O)CC(=O)O", "note": "[BAPTA]", "values": [
      {"measurement": "fall of R1, isotonic solution", "setting": "[2]; 6 mM, isotonic", "result": "quickly dropped R1, similar to the hypotonic solutions"}
    ]},
    {"compound": "O=C(O)CN(CCN(CC(=O)O)CC(=O)O)CC(=O)O", "note": "[EDTA]", "values": [
      {"measurement": "time required to decrease R1 to ~20% of the controls", "setting": "[2]; 6 mM chelator, isotonic (220 mmol/kg)", "result": "Sixty"}
    ]},
    {"compound": "N=C(N)NC(=O)c1nc(Cl)c(N)nc1N", "note": "[amiloride]", "values": [
      {"measurement": "Vt response to amiloride in control tracheas perfused with saline", "setting": "[3]", "result": "the anticipated fall in Vt in response to perfusion with amiloride"},
      {"measurement": "nasal Vt response to amiloride in control studies", "setting": "[4]", "result": "there was a significant fall in Vt with amiloride treatment"}
    ]},
    {"compound": "O", "note": "[water]", "values": [
      {"measurement": "effect on proliferation", "setting": "[5]; application of H2O or EGTA to epithelia, control studies", "result": "had no effect on proliferation"},
      {"measurement": "epithelia expressing β-gal", "setting": "[5]; pretreated with water alone, vector to mucosal surface, mean±SE, n=13", "result": "3±0.5", "unit": "%"}
    ]},
    {"compound": "EGF: epidermal growth factor", "values": [
      {"measurement": "BrdU incorporation versus control epithelia", "setting": "[6]", "result": "increased BrdU incorporation over control epithelia"}
    ]},
    {"compound": "HGF: Hepatocyte growth factor, mitogen for pulmonary epithelia", "values": [
      {"measurement": "stimulation of cell division measured by [3H] thymidine incorporation", "setting": "[7]", "result": 3, "unit": "fold"},
      {"measurement": "BrdU cell labeling", "setting": "[6]; HGF 200 ng/ml, untreated controls 5-10% BrdU positive, n=3", "result": "17-36%"}
    ]},
    {"compound": "heregulin", "values": [
      {"measurement": "BrdU incorporation versus control epithelia", "setting": "[6]", "result": "increased BrdU incorporation over control epithelia"}
    ]}
  ]
}
